We go through 10 compounds from article PMC6017704 (Molecules : A Journal of Synthetic Chemistry and Natural …, 2018).

The target of one assay is T1, VEGFR-2 (KDR) kinase (Homo sapiens, UniProt P35968).
T1 construct: purchased Carna Biosciences
In words: VEGFR-2 kinase assay (HTRF KinEASE-TK). The format is biochemical. The settings on record: for IC50: HTRF, ATP 3 µM, 40 min, dark condition, n = 3. For orientation: TR-FRET usually uses a lanthanide donor and a delayed reading to cut background.

Assay [1] deals with human umbilical vein endothelial cells (PUMC-HUVEC-T1). As to the kind of experiment: HUVEC cell anti-proliferation assay (MTT). The class given is cell-based. The settings on record: for viability at 1 µM / viability at 10 µM / IC50: Homo sapiens, 72 h, MTT; for viability at 1 µM / viability at 10 µM: read-out: Relative Cell Viability (%) ± SD (n = 3); for viability at 10 µM / inhibition ratio in HUVEC: 10 µM; for IC50: n = 3, read-out: IC50, HUVEC relative cell viability. The text has this: A major mediator of VEGF-driven responses in endothelial cells is VEGFR-2, which is considered to play a decisive role in both physiologic and pathologic angiogenesis. The homogeneous time-resolved fluorescence (HTRF) method was used in the assay that determined the inhibitory activities of target compounds against VEGFR-2 kinase. Owing to VEGFR-2 overexpression in human umbilical vein endothelial cells (HUVEC), these target compounds were further evaluated in vitro anti-proliferation activity against HUVEC. MTT assay was used in the cell assay. […] In order to ensure the repeatability of the activity test, we choose to complete biological evaluation under the dark condition.
SV40T transforms human umbilical vein endothelial cells (PUMC-HUVEC-T1) were gifts from Dr. Lihua Ding (Institute of Biotechnology, Beijing, China). MTT Cell Proliferation and Cytotoxicity Assay Kit (#GK-5605, Genview) was used to measure cell viability and proliferation. Metabolically active cells in part by the action of dehydrogenase enzymes reduced the yellow tetrazolium MTT to generate purple reducing equivalents such as NADH and NADPH. The resulting intracellular purple formazan can be solubilized and quantified by spectrophotometer.
For MTT assay, cells were seeded into separate 96-well plates at 5000 cells/well and cultured in an incubator containing 5% CO2 at 37 °C for 24 h. Subsequently, target compounds were dissolved into different concentrations with culture medium from 10 mM stock solutions in DMSO, respectively. Then target compounds were added and incubated at 37 °C for 72 h. All assays were performed in triplicate. The untreated groups were used as a vehicle of control. Following the 72-h incubation, discarded culture medium and washed with PBS once time followed by adding 180 µL of fresh culture medium. Cell viability was quantified with MTT assay. According to the manufacturer instructions, 20 µL of MTT solution that was previously thawed and equilibrated to room temperature was added to each well and plates were incubated at 37 °C for 4 h. Termination of culture, the supernatant was carefully discarded and added 150 µL of Formazan dissolution for 10 min vibration at room temperature. The OD value of each well was measured by a spectrophotometer at 490 nm and the inhibitory rates expressed as percentages of the vehicle control (100%). Data processing: ratio = Vsample/Vcontrol × 100%. Vsample is for compound treatment group while Vcontrol is for solvent control group. The GraphPad Prism 5.0 software was used to draw nonlinear regression model and calculated IC50 values.

Where only a bound is given, the exact number is not on record here.

T1 sequence (P35968 20-1356): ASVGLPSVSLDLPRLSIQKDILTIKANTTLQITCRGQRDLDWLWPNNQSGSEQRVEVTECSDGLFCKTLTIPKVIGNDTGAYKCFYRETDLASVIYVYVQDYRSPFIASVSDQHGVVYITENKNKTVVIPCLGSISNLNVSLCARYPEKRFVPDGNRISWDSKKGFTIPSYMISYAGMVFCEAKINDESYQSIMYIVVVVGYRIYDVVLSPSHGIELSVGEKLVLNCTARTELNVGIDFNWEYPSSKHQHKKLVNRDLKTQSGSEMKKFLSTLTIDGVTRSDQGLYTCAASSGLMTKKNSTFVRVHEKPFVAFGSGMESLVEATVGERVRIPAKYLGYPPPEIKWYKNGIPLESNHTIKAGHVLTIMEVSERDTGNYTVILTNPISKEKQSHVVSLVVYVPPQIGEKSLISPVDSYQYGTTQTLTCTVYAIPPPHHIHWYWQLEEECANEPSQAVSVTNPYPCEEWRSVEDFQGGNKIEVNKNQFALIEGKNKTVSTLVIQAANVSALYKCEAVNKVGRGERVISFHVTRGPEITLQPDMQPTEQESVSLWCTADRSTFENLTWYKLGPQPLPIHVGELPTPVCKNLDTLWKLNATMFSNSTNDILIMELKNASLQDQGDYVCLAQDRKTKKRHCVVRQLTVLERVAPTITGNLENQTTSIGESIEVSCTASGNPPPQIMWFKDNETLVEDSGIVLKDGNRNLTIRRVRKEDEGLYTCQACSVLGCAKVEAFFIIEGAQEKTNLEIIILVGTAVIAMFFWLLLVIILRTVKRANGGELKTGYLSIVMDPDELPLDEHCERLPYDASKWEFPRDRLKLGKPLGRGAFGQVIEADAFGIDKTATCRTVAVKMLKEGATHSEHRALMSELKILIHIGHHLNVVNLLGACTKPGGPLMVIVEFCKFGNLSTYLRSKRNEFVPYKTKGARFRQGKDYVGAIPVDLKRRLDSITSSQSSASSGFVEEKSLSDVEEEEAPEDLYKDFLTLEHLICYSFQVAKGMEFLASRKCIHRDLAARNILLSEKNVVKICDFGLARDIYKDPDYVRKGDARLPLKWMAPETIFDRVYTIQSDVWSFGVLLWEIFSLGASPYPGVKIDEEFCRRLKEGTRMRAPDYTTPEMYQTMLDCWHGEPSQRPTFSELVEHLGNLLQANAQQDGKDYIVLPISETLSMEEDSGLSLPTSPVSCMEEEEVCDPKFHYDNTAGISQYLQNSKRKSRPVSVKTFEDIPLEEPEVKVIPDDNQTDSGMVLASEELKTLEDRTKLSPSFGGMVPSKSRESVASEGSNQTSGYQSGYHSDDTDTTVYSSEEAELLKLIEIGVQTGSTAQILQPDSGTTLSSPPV

`CNC(=O)c1ccccc1Sc1ccc2c(N=Nc3cc(C)[nH]c3C)n[nH]c2c1` [TM10, 2-(3-((2,5-dimethyl-1H-pyrrol-3-yl)diazenyl)-1H-indazol-6-ylthio)-N-methylbenzamide]: the IC50 at VEGFR-2 (KDR) kinase was found to be 44 ± 1.15 nM. For the same compound, in assay [1], the viability at 1 µM came out at 99.29 ± 0.78% and the viability at 10 µM was 66.2 ± 4.43%.
Regarding `CNC(=O)c1ccccc1Sc1ccc2c(N=Nc3ccc(C)[nH]3)n[nH]c2c1` [TM11, N-methyl-2-(3-((5-methyl-1H-pyrrol-2-yl)diazenyl)-1H-indazol-6-ylthio)benzamide], the IC50 on VEGFR-2 (KDR) kinase was determined as 330 ± 1.14 nM. In assay [1], the “inhibition ratio in HUVEC” value is “exceeding 60%”, the viability at 1 µM worked out at 67.03 ± 0.19%, the viability at 10 µM came out at 31 ± 0.61% and the half-maximal inhibitory concentration (IC50) was determined as 2150 nM.
For `CNC(=O)c1ccccc1Sc1ccc2c(N=Nc3[nH]c(C)cc3C)n[nH]c2c1` [TM9, 2-(3-((3,5-dimethyl-1H-pyrrol-2-yl)diazenyl)-1H-indazol-6-ylthio)-N-methylbenzamide], at VEGFR-2 (KDR) kinase, it took 201 ± 1.26 nM to reach half-maximal inhibition (IC50). Also, in assay [1], the viability at 1 µM was determined as 68.54 ± 0.29%, the viability at 10 µM was 32.2 ± 1.99% and the IC50 was determined as 2180 nM.
In turn, `CNC(=O)c1ccccc1Sc1ccc2c(N=Nc3cc(C)n(C)c3C)n[nH]c2c1` [TM8, N-methyl-2-(3-((1,2,5-trimethyl-1H-pyrrol-3-yl)diazenyl)-1H-indazol-6-ylthio)benzamide] yielded an IC50 against VEGFR-2 (KDR) kinase of 158 ± 1.14 nM. Besides, in assay [1], the viability at 1 µM is 92.3 ± 9.05% and the viability at 10 µM turned out to be 61.3 ± 10.9%.
Compound `CNC(=O)c1ccccc1Sc1ccc2c(N=Nc3ccc(N)cc3OC)n[nH]c2c1` [TM3, 2-(3-((4-amino-2-methoxyphenyl)diazenyl)-1H-indazol-6-ylthio)-N-methylbenzamide] came in with an IC50 at VEGFR-2 (KDR) kinase of 195 ± 1.11 nM. The “increase of VEGFR-2 activity compared with TM2” value at VEGFR-2 (KDR) kinase (relative to TM2) is given as “more than ten times”. Besides, in assay [1], the “inhibition ratio in HUVEC” value is recorded as ≤ 20%, the viability at 1 µM was determined as 125 ± 8.92% and the viability at 10 µM came to 84.1 ± 6.83%.
Consider `CNC(=O)c1ccccc1Sc1ccc2c(N=Nc3c(OC)cc(N)cc3OC)n[nH]c2c1` [TM2, 2-(3-((4-amino-2,6-dimethoxyphenyl)diazenyl)-1H-indazol-6-ylthio)-N-methylbenzamide], for which, in assay [1], the “inhibition ratio in HUVEC” value is recorded as ≤ 20%, the viability at 1 µM was 107 ± 1.29% and the viability at 10 µM is 94.4 ± 5.01%.
Turning to `CNC(=O)c1ccccc1Sc1ccc2c(N=Nc3ccc(N(C)C)cc3)n[nH]c2c1` [TM4, 2-(3-((4-(dimethylamino)phenyl)diazenyl)-1H-indazol-6-ylthio)-N-methylbenzamide], on VEGFR-2 (KDR) kinase, the concentration for half-maximal inhibition (IC50) came to 135 ± 1.25 nM. Besides, in assay [1], the “inhibition ratio in HUVEC” value is on record as ≤ 20%, the viability at 1 µM is 94.1 ± 1.89% and the viability at 10 µM was 82.8 ± 5.32%.
For the compound `CNC(=O)c1ccccc1Sc1ccc2c(/C=C/c3ccccn3)n[nH]c2c1` [Axitinib, reference compound], in assay [1], the viability at 1 µM turned out to be 80 ± 6.64% and the viability at 10 µM is 53.2 ± 9.11%.
On VEGFR-2 (KDR) kinase, `CNC(=O)c1ccccc1Sc1ccc2c(N=Nc3ccc[nH]3)n[nH]c2c1` [TM7, 2-(3-((1H-pyrrol-2-yl)diazenyl)-1H-indazol-6-ylthio)-N-methylbenzamide] came in with an IC50 of 123 ± 1.08 nM. In assay [1], the “inhibition ratio in HUVEC” value was “exceeding 60%”, the viability at 1 µM came to 84.4 ± 4.35%, the viability at 10 µM worked out at 39.1 ± 2.49% and the IC50 is 5730 nM.
The compound `CNC(=O)c1ccccc1Sc1ccc2c(N=Nc3cccn3C)n[nH]c2c1` [TM6, N-methyl-2-(3-((1-methyl-1H-pyrrol-2-yl)diazenyl)-1H-indazol-6-ylthio)benzamide] had an IC50 against VEGFR-2 (KDR) kinase of 2290 ± 1.17 nM. In assay [1], the “inhibition ratio in HUVEC” value was “exceeding 60%”, the viability at 1 µM stood at 97 ± 10.4%, the viability at 10 µM came to 19.3 ± 3.82% and the IC50 is 5030 nM.

As usually defined, the IC50 is the point on the concentration scale where inhibition reaches its midpoint. The viability is a read-out of living cells in per cent, often relative to untreated cells.
